In PMC10057887, “Analysis of Essential Isoprene Metabolic Pathway Proteins in Variovorax sp. Strain WS11” (Applied and Environmental Microbiology, 2023):

Legend:
AD45-AldH [1] = test: NADH formation at […] nm, substrate inhibition model at high concentrations; format: biochemical, Rhodococcus sp. AD45; details: NAD+ 5 mM, 50 mM sodium carbonate pH 10.0, racemic substrate
WS11-AldH [2] = tested on: T1, WS11-AldH; test: as above; format: biochemical, Variovorax sp. WS11; details: NAD+ 5 mM, 50 mM sodium carbonate pH 10.0, racemic substrate
T1 construct: isoprene cluster copy, on megaplasmid

WS11-AldH [3] = tested on: T1, WS11-AldH; test: NADH formation at […] nm, Michaelis-Menten fit; format: biochemical, Variovorax sp. WS11; details: NAD+ 5 mM, 50 mM sodium carbonate pH 10.0
AD45-AldH [4] = test: NADH formation at […] nm, Michaelis-Menten fit; format: biochemical, Rhodococcus sp. AD45; details: NAD+ 5 mM, 50 mM sodium carbonate pH 10.0

| Km (AD45-AldH [1]) | Km (WS11-AldH [2]) | Km (WS11-AldH [3]; predicted Km, not saturated at 10 mM) | Km (AD45-AldH [4]) | Km (WS11-AldH [3]) | SMILES |
| --- | --- | --- | --- | --- | --- |
| 30 µM | 120 µM |  |  |  | CCC(C)C=O (racemic) [2-methylbutanal] |
|  |  | ~10900 µM | 570 µM |  | CCC=O [propanal] |
|  |  |  | 80 µM | 690 µM | CCCC=O [butanal] |
